From PubChem BioAssay AID1919003 (Molecular Pharmacology Branch, DTP, NCI, 2023) come the findings set out here.

For this experiment, the system named is 786-0 complex spheroids with HUVEC/MSC, growth % test/control. The experiment in a line: Anticancer human tumor 786-0 cell line growth inhibition [AhR].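 On all read-outs here: compound exposure lasted seven days before the read-out.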 The note with it: for viability, T/C: stronger effect = lower value. The gist of the method: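 Complex tumor spheroids co-cultured with HUVEC and human MSC stroma; AhR antagonists tested in combination with standard-of-care and investigational agents. Top concentration at or near clinical Cmax (else 10 microM), half-log dilutions; growth expressed as percent test/control.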

The mark [1] stands for this setting: curve of first compound, second compound 0.1 µM.
Setting [2] is: curve of first compound, second compound 0.316 µM.
The mark [3] stands for this setting: curve of first compound, second compound 1 µM.
The mark [4] stands for this setting: curve of first compound, second compound 3.16 µM.
Setting [5] is: curve of first compound, second compound 10 µM.
[6] abbreviates: second compound 0.1 µM, first compound 0.0316 µM.
Setting [7] is: second compound 0.1 µM, first compound 0.1 µM.
Where [8] appears, read: second compound 0.316 µM, first compound 0.0316 µM.
Where [9] appears, read: second compound 0.316 µM, first compound 0.1 µM.
[10] abbreviates: second compound 1 µM, first compound 0.0316 µM.
Setting [11] is: second compound 1 µM, first compound 0.1 µM.
[12] abbreviates: second compound 3.16 µM, first compound 0.0316 µM.
The mark [13] stands for this setting: second compound 3.16 µM, first compound 0.1 µM.
[14] abbreviates: second compound 10 µM, first compound 0.0316 µM.
Where [15] appears, read: second compound 10 µM, first compound 0.1 µM.

By IC50 is commonly meant the concentration that inhibits the measured activity by half. The term viability, T/C denotes the result in the treated group divided by that in the control group, in per cent.

“And” between values parts separate entries of the source, which are not always exact repeats. Equal entries are not always repeated. A value given as a limit tells only on which side of the number the result lay.

Take `CC(C)CC(NC(=O)C(Cc1ccccc1)NC(=O)c1cnccn1)B(O)O` (stereo unspecified) + Cc1cncc(-c2nc(NCCc3c[nH]c4ccccc34)c3ncn(C(C)C)c3n2)c1: the IC50 is, setting by setting: under setting [1], 0.0178 µM; under setting [2], 0.0186 µM; under setting [3], 0.017 µM; under setting [4], 0.00846 µM; under setting [5], under 0.000949 µM. Besides, the viability, T/C is 136% (second compound 0.1 µM, first compound 0.000949 µM); 119% (second compound 0.1 µM, first compound 0.003 µM); 103% (second compound 0.1 µM, first compound 0.00949 µM); 5.33% (second compound 0.1 µM, first compound 0.03 µM); 0.52% (second compound 0.1 µM, first compound 0.0949 µM); 0.46% (second compound 0.1 µM, first compound 0.3 µM). Moreover, the viability, T/C reads like this: (second compound 0.316 µM, first compound 0.000949 µM) 127%; (second compound 0.316 µM, first compound 0.003 µM) 120%; (second compound 0.316 µM, first compound 0.00949 µM) 118%; (second compound 0.316 µM, first compound 0.03 µM) 3.15%; (second compound 0.316 µM, first compound 0.0949 µM) 0.85%; (second compound 0.316 µM, first compound 0.3 µM) 0.37%. Moreover, the viability, T/C runs as follows: (second compound 1 µM, first compound 0.000949 µM) 102%; (second compound 1 µM, first compound 0.003 µM) 110%; (second compound 1 µM, first compound 0.00949 µM) 96.9%; (second compound 1 µM, first compound 0.03 µM) 4.16%; (second compound 1 µM, first compound 0.0949 µM) 0.6%; (second compound 1 µM, first compound 0.3 µM) 0.7%. In addition, the viability, T/C is 70.7% (second compound 3.16 µM, first compound 0.000949 µM); 69.3% (second compound 3.16 µM, first compound 0.003 µM); 47.8% (second compound 3.16 µM, first compound 0.00949 µM); 1.63% (second compound 3.16 µM, first compound 0.03 µM); 0.28% (second compound 3.16 µM, first compound 0.0949 µM); 0.43% (second compound 3.16 µM, first compound 0.3 µM). Besides, the viability, T/C was 10.2% (second compound 10 µM, first compound 0.000949 µM); 16% (second compound 10 µM, first compound 0.003 µM); 2.59% (second compound 10 µM, first compound 0.00949 µM); 0.18% (second compound 10 µM, first compound 0.03 µM); 0.17% (second compound 10 µM, first compound 0.0949 µM); 0.24% (second compound 10 µM, first compound 0.3 µM).
On to `CC[C@@]1(O)C(=O)OCc2c1cc1n(c2=O)Cc2cc3c(CN(C)C)c(O)ccc3nc2-1` + Cc1ccccc1N=Nc1ccc(NC(=O)c2ccnn2C)c(C)c1, for which the IC50 under setting [1] was 0.0485 µM; the IC50 under setting [2] was found to be 0.041 µM; the IC50 under setting [3] amounted to 0.0388 µM; the IC50 under setting [4] amounted to 0.0309 µM; the IC50 under setting [5] came out at 0.027 µM. The viability, T/C is 107% (second compound 0.1 µM, first compound 0.000316 µM); 103% (second compound 0.1 µM, first compound 0.001 µM); 104% (second compound 0.1 µM, first compound 0.00316 µM); 109% (second compound 0.1 µM, first compound 0.01 µM); 68.1% under setting [6]; 19.6% under setting [7]. In addition, the viability, T/C (second compound 0.316 µM, first compound 0.000316 µM) was 101%; the viability, T/C (second compound 0.316 µM, first compound 0.001 µM) was 99.4%; the viability, T/C (second compound 0.316 µM, first compound 0.00316 µM) was 107%; the viability, T/C (second compound 0.316 µM, first compound 0.01 µM) is 103%; the viability, T/C under setting [8] is 59.8%; the viability, T/C under setting [9] was 16.6%. The viability, T/C was 102% (second compound 1 µM, first compound 0.000316 µM); 101% (second compound 1 µM, first compound 0.001 µM); 106% (second compound 1 µM, first compound 0.00316 µM); 103% (second compound 1 µM, first compound 0.01 µM); 57.3% under setting [10]; 15.9% under setting [11]. Moreover, the viability, T/C was 96.4% (second compound 3.16 µM, first compound 0.000316 µM); 101% (second compound 3.16 µM, first compound 0.001 µM); 93.4% (second compound 3.16 µM, first compound 0.00316 µM); 92.3% (second compound 3.16 µM, first compound 0.01 µM); 49.1% under setting [12]; 18.7% under setting [13]. Further, the viability, T/C reads like this: (second compound 10 µM, first compound 0.000316 µM) 90.7%; (second compound 10 µM, first compound 0.001 µM) 89.5%; (second compound 10 µM, first compound 0.00316 µM) 86.4%; (second compound 10 µM, first compound 0.01 µM) 83.6%; under setting [14], 44.6%; under setting [15], 16.7%.
Take `Nc1ncn(C2CC(O)C(CO)O2)c(=O)n1` (stereo unspecified): the viability, T/C is, setting by setting: (compound 0.00316 µM) 99.4% and 101% and 104%; (compound 0.01 µM) 102% and 81.5% and 104%; (compound 0.0316 µM) 98.7% and 88.8% and 106%; (compound 0.1 µM) 96.5% and 86% and 94.8%; (compound 0.316 µM) 81.5% and 69.4% and 93.1%; (compound 1 µM) 85.2% and 54.8% and 84.6%. Besides, under “curve of compound”, the IC50 is over 1 µM.
`Cn1ncnc1C1c2n[nH]c(=O)c3cc(F)cc(c23)NC1c1ccc(F)cc1` (stereo unspecified): the viability, T/C reads like this: (compound 0.000316 µM) 108% (2×) and 92.5%; (compound 0.001 µM) 104% and 108% and 105%; (compound 0.00316 µM) 110% and 104% and 100%; (compound 0.01 µM) 109% and 104% and 101%; (compound 0.0316 µM) 99.5% and 112% and 97.7%; (compound 0.1 µM) 106% and 108% and 102%. In addition, the IC50 (curve of compound) is over 0.1 µM.
Take `CC1COCCN1c1cc(C2(S(C)(=N)=O)CC2)nc(-c2ccnc3[nH]ccc23)n1` (stereo unspecified) + CC(CO)NC(=O)c1cc(-c2ccc(Cl)cc2)nn(-c2cnn(C)c2)c1=O: the IC50 under setting [1] was 3.02 µM; the IC50 under setting [2] is 2.78 µM; the IC50 under setting [3] was 2.64 µM; the IC50 under setting [4] came to 2.57 µM; the IC50 under setting [5] turned out to be 2.09 µM. Further, the viability, T/C under setting [6] was 99.7%; the viability, T/C under setting [7] is 99.5%; the viability, T/C (second compound 0.1 µM, first compound 0.316 µM) is 98.1%; the viability, T/C (second compound 0.1 µM, first compound 1 µM) was 99.4%; the viability, T/C (second compound 0.1 µM, first compound 3.16 µM) is 48%; the viability, T/C (second compound 0.1 µM, first compound 10 µM) is 15.7%. Moreover, the viability, T/C under setting [8] is 101%; the viability, T/C under setting [9] is 110%; the viability, T/C (second compound 0.316 µM, first compound 0.316 µM) was 96.2%; the viability, T/C (second compound 0.316 µM, first compound 1 µM) was 101%; the viability, T/C (second compound 0.316 µM, first compound 3.16 µM) is 43.6%; the viability, T/C (second compound 0.316 µM, first compound 10 µM) was 17.3%. The viability, T/C is 108% under setting [10]; 102% under setting [11]; 113% (second compound 1 µM, first compound 0.316 µM); 97.4% (second compound 1 µM, first compound 1 µM); 41.3% (second compound 1 µM, first compound 3.16 µM); 13.7% (second compound 1 µM, first compound 10 µM). Moreover, the viability, T/C by setting is: under setting [12], 108%; under setting [13], 101%; (second compound 3.16 µM, first compound 0.316 µM) 118%; (second compound 3.16 µM, first compound 1 µM) 107%; (second compound 3.16 µM, first compound 3.16 µM) 37.5%; (second compound 3.16 µM, first compound 10 µM) 10.8%. Moreover, the viability, T/C under setting [14] is 110%; the viability, T/C under setting [15] is 118%; the viability, T/C (second compound 10 µM, first compound 0.316 µM) was 115%; the viability, T/C (second compound 10 µM, first compound 1 µM) is 93.6%; the viability, T/C (second compound 10 µM, first compound 3.16 µM) is 25.5%; the viability, T/C (second compound 10 µM, first compound 10 µM) was 8.6%.
As to `CC[C@@]1(O)C(=O)OCc2c1cc1n(c2=O)Cc2cc3c(CN(C)C)c(O)ccc3nc2-1`, the viability, T/C runs as follows: (compound 0.000316 µM) 105% and 100% and 103%; (compound 0.001 µM) 97.3% and 102% and 104%; (compound 0.00316 µM) 96.1% and 107% and 98%; (compound 0.01 µM) 97.8% and 106% and 109%; (compound 0.0316 µM) 64.5% and 73.7% and 85.6%; (compound 0.1 µM) 16.4% and 21.4% and 16.1%. The IC50 (curve of compound) is 0.0447 µM and 0.0533 µM and 0.057 µM.
